From ChEMBL document CHEMBL5053512, “Discovery and Preclinical Pharmacology of an Oral Bromodomain and Extra-Terminal (BET) Inhibitor Using Scaffold-Hopping and Structure-Guided Drug Design” (J Med Chem, 2021) come the findings set out here.

pIC50: −log10 of the molar value.

The assay in a line: Inhibition of c-MYC expression in human JJN3R cells measured after 4 hrs. It is filed as functional, cell-based. To be noted: JJN-3R.

By pIC50 is commonly meant −log10 of the IC50, conventionally taken in molar units. A high value points to a small IC50. Molecule `Cc1nnn(C)c1-c1cnc2c3ccc(C(C)(C)O)cc3n([C@H](c3ccccc3)C3CCOCC3)c2c1` [EZOBRESIB] showed a pIC50 of 9.15.
